In patent publication US20240150340A1, “CDK Inhibitors And Their Use As Pharmaceuticals” (Prelude Therapeutics Incorporated, priority 2022, published 2024) one finds IC50 data, which are given here for 16 compounds.

One test deals with T1, CDK2/Cyclin E2 (Homo sapiens, UniProt P24941).
T1 construct: Recombinant protein complex CDK2/Cyclin E2, expressed from insect cell, was purchased from ProQinase
As to the kind of experiment: CDK2/CyclinE2 Enzymatic Activity Assay (TR-FRET). Format: biochemical. The conditions noted are these: ATP 1 mM final, read-out: CDK2_E1 IC50. How it is done: CDK2/CyclinE2 Enzymatic Activity Assay
The inhibitory activity of compounds was evaluated in vitro using TR-FRET assay with white 384-well low volume microplate (Greiner Bio-One). CDK2/Cyclin E2 catalyzed phosphorylation of peptide in the presence and absence of compounds was measured and used in IC50 determination. Recombinant protein complex CDK2/Cyclin E2, expressed from insect cell, was purchased from ProQinase. Testing compounds were dissolved in DMSO at 1 mM and tested in 9-dose IC50 mode. The reaction mixture was prepared by mixing CDK2/CyclinE2 (1 nM final), ULight-4E-BP1 (50 nM final, Perkinelmer, TRF0128-D), and ATP (1 mM final) in assay buffer (20 mM of HEPES pH 7.4, 1 mM of EGTA, 0.05% BSA, 0.005% Tween 20, and 1 mM TCEP). The compound of interest in DMSO was added to each well in 3-fold serial dilution by dispenser (TECAN D300E) to make a 9.9 μL of reaction mixture. After 20 minutes preincubation at room temperature, 0.1 μL MgCl2 (10 mM final) was added to initiate the reaction. Following a 45 minute incubation at 37° C., the reaction was stopped by addition of 2 μL of quenching buffer consisting of Lance detection buffer (Perkinelmer CR97-100C), LANCE Ultra Europium-anti-P-4E-BP1 (Perkinelmer, TRF0216-D), EDTA, and incubated at room temperature for additional 60 minutes in the dark. The reaction signal was measured by Envision multimode plate reader (PerkinElmer, 2102-0010). IC50 values were determined by fitting the data to the standard 4 parameters with Hill Slope using GraphPad Prism software.
A general note: Time-resolved FRET reads energy transfer from a long-lived donor to a nearby acceptor.

Another test relates to OVCAR3 p-RB. Briefly: pRB ICW Assay in OVCAR3 Cells. Format: cell-based. Conditions: Homo sapiens, OVCAR-3, incubated with compound for 2 hours. As for the experimental part:
pRB ICW Assay in OVCAR3 Cells
OVCAR3 cells were maintained in RPMI (Corning, Catalog #: 10-040-CV) supplemented with 10% v/v FBS (Gibco, Catalog #: 26140-079), 1% v/v Penicillin Streptomycin (Gibco, Catalog #15140-122.) OVCAR3 cells grown at log phase were trypsinized, counted, and resuspended in fresh medium to reach a final density of 6.7e4 cells/mL and 75 μL of culture were dispensed into a 384-well plate (Falcon, cat #353962) using a Multidrop Combi dispenser (Thermo Scientific). The next day, compounds were dispensed as a 9-point, ½ log serial dilution using a Tecan digital dispenser (D300e), and cells were incubated with compound for 2 hours in a humidified incubator at 37° C. A reference compound at a final concentration of 10 μM was used as a control for maximum inhibition. Each compound was tested in duplicate for each experiment. At the end of the incubation, […] (Electron Microscopy, cat #15710) was slowly added to each well and the plate was incubated at room temperature (RT) for 30 minutes to fix cells. Cells were then permeabilized by incubating with 50 μL/well of wash buffer (1×PBS with 0.1% Triton X-100) 5×5 minutes, followed by 1 hour blocking with 30 μL/well of Odyssey blocking buffer (Li-COR, cat #927-40000), at RT. Anti-phosphor RB antibody (Cell signaling 8516S) was diluted 1:1000 in Odyssey blocking buffer and 20 μL was added to all wells and incubated overnight in 4° C. with gently rocking. The next day, cells were washed 5×5 min with 50 μL/well of wash buffer, followed with 1 hour incubation with secondary antibody and DRAQ5 diluted in Odyssey blocking buffer (1:500 dilution for secondary antibody and 1:2000 dilution for DRAQ5), 5×5 min washes, and one last wash with water. Plates were dried in 37° C. oven for 5 minutes and scanned using Li-COR Odyssey CLx imaging system to acquire intensities at 700 and 800 nm channels.

By IC50 is commonly meant the concentration that inhibits the measured activity by half.

SMILES strings stand for the structures.

For the compound `C[C@@H]1CN(S(=O)(=O)c2cnn(C)c2)CC[C@@H]1Nc1ncc(C(F)(F)F)c(-c2ncc(C(O)C(F)(F)F)s2)n1` (stereo partly drawn) [Example 141, 2,2,2-trifluoro-1-(2-(2-(((3R,4S)-3-methyl-1-((1-methyl-1H-pyrazol-4-yl)sulfonyl)piperidin-4-yl)amino)-5-(trifluoromethyl)pyrimidin-4-yl)thiazol-5-yl)ethan-1-ol], the results for the IC50 at CDK2/Cyclin E2 and in the test on OVCAR3 p-RB were at most 100 nM and 100 to 500 nM, respectively.

As for `Cn1cnc(S(=O)(=O)N2CCC(Nc3ncc(C(F)(F)F)c(-c4ncc(C(C)(C)O)s4)n3)CC2)c1` [Example 98, 2-(2-(2-((1-((1-methyl-1H-imidazol-4-yl)sulfonyl)piperidin-4-yl)amino)-5-(trifluoromethyl)pyrimidin-4-yl)thiazol-5-yl)propan-2-ol], the IC50 at CDK2/Cyclin E2 and in the test on OVCAR3 p-RB was at most 100 nM in each case.

Take `CC(O)(c1cnc(-c2nc(NC3CCN(S(C)(=O)=O)CC3)ncc2C(F)(F)F)s1)C(F)F` (centres unmarked) [Example 102, 1,1-difluoro-2-(2-(2-((1-(methylsulfonyl)piperidin-4-yl)amino)-5-(trifluoromethyl)pyrimidin-4-yl)thiazol-5-yl)propan-2-ol]: the 50% inhibitory concentration (IC50) on CDK2/Cyclin E2 and in the test with OVCAR3 p-RB was at most 100 nM in each case.

In the case of `CC(C)(O)Cc1cnc(-c2nc(N[C@H]3CCN(S(C)(=O)=O)C[C@H]3F)ncc2C#N)s1` [Example 153, 2-(((3R,4S)-3-fluoro-1-(methylsulfonyl)piperidin-4-yl)amino)-4-(5-(2-hydroxy-2-methylpropyl)thiazol-2-yl)pyrimidine-5-carbonitrile], the IC50 is at most 100 nM at CDK2/Cyclin E2 and above 500 nM in the test with OVCAR3 p-RB.

In the case of `C[C@@H]1CN(S(=O)(=O)c2cnn(C)c2)CC[C@@H]1Nc1ncc(C(F)(F)F)c(-c2cc(C#N)c(C(O)C(F)(F)F)s2)n1` (stereo partly drawn) [Example 123, 5-(2-(((3R,4S)-3-methyl-1-((1-methyl-1H-pyrazol-4-yl)sulfonyl)piperidin-4-yl)amino)-5-(trifluoromethyl)pyrimidin-4-yl)-2-(2,2,2-trifluoro-1-hydroxyethyl)thiophene-3-carbonitrile], the IC50 on CDK2/Cyclin E2 and with OVCAR3 p-RB was at most 100 nM each time.

Regarding `C[C@@H]1CN(S(=O)(=O)c2cn(C)cn2)CC[C@@H]1Nc1ncc(C(F)(F)F)c(-c2cc(C#N)c(C(C)(C)O)s2)n1` [Example 121, 2-(2-hydroxypropan-2-yl)-5-(2-(((3R,4S)-3-methyl-1-((1-methyl-1H-imidazol-4-yl)sulfonyl)piperidin-4-yl)amino)-5-(trifluoromethyl)pyrimidin-4-yl)thiophene-3-carbonitrile], the IC50 was at most 100 nM at CDK2/Cyclin E2 and 100 to 500 nM in the test with OVCAR3 p-RB.

Take `C[C@@H]1CN(S(=O)(=O)c2cnn(C)c2)CC[C@@H]1Nc1ncc(C(F)(F)F)c(-c2ncc(C(O)CF)s2)n1` (stereo partly drawn) [Example 144, 2-fluoro-1-(2-(2-(((3R,4S)-3-methyl-1-((1-methyl-1H-pyrazol-4-yl)sulfonyl)piperidin-4-yl)amino)-5-(trifluoromethyl)pyrimidin-4-yl)thiazol-5-yl)ethan-1-ol]: the IC50 on CDK2/Cyclin E2 is at most 100 nM; in the test with OVCAR3 p-RB it was 100 to 500 nM.

As to `C[C@@H]1CN(S(=O)(=O)c2cnn(C)c2)CC[C@@H]1Nc1ncc(C(F)(F)F)c(-c2ncc(C(C)(O)C(F)F)s2)n1` (stereo partly drawn) [Example 143, 1,1-difluoro-2-(2-(2-(((3R,4S)-3-methyl-1-((1-methyl-1H-pyrazol-4-yl)sulfonyl)piperidin-4-yl)amino)-5-(trifluoromethyl)pyrimidin-4-yl)thiazol-5-yl)propan-2-ol], the IC50 on CDK2/Cyclin E2 and in the test on OVCAR3 p-RB was at most 100 nM throughout.

As to `C[C@@H]1CN(S(C)(=O)=O)CC[C@@H]1Nc1ncc(C(F)(F)F)c(-c2ncc(C3(O)CC3)s2)n1` [Example 151, 1-(2-(2-(((3R,4S)-3-methyl-1-(methylsulfonyl)piperidin-4-yl)amino)-5-(trifluoromethyl)pyrimidin-4-yl)thiazol-5-yl)cyclopropan-1-ol], the IC50 at CDK2/Cyclin E2 was at most 100 nM; in the test with OVCAR3 p-RB, above 500 nM.

`CC(C)(O)c1cnc(-c2nc(N[C@H]3CCN(S(C)(=O)=O)C[C@H]3F)ncc2C(F)(F)F)s1` [Example 96, 2-(2-(2-(((3R,4S)-3-fluoro-1-(methylsulfonyl)piperidin-4-yl)amino)-5-(trifluoromethyl)pyrimidin-4-yl)thiazol-5-yl)propan-2-ol]: the IC50 at CDK2/Cyclin E2 and in the test on OVCAR3 p-RB was at most 100 nM each time.

Turning to `Cn1cc(S(=O)(=O)N2CCC(Nc3ncc(C(F)(F)F)c(-c4cc(C#N)c(CC(C)(C)O)s4)n3)CC2)cn1` [Example 125, 2-(2-hydroxy-2-methylpropyl)-5-(2-((1-((1-methyl-1H-pyrazol-4-yl)sulfonyl)piperidin-4-yl)amino)-5-(trifluoromethyl)pyrimidin-4-yl)thiophene-3-carbonitrile], the figures for the IC50 on CDK2/Cyclin E2 and in the test with OVCAR3 p-RB were at most 100 nM and 100 to 500 nM, respectively.

Consider `Cn1cc(S(=O)(=O)N2CC[C@@H](Nc3ncc(C(F)(F)F)c(-c4cc(C#N)c(C(C)(C)O)s4)n3)[C@H](F)C2)cn1` [Example 119, 5-(2-(((3R,4R)-3-fluoro-1-((1-methyl-1H-pyrazol-4-yl)sulfonyl)piperidin-4-yl)amino)-5-(trifluoromethyl)pyrimidin-4-yl)-2-(2-hydroxypropan-2-yl)thiophene-3-carbonitrile], for which the IC50 on CDK2/Cyclin E2 and with OVCAR3 p-RB was at most 100 nM in each case.

Take `C[C@@H]1CN(S(=O)(=O)c2c[nH]cn2)CC[C@@H]1Nc1ncc(C(F)(F)F)c(-c2cc(C#N)c(C(C)(C)O)s2)n1` [Example 120, 5-(2-(((3R,4S)-1-((1H-imidazol-4-yl)sulfonyl)-3-methylpiperidin-4-yl)amino)-5-(trifluoromethyl)pyrimidin-4-yl)-2-(2-hydroxypropan-2-yl)thiophene-3-carbonitrile]: the IC50 on CDK2/Cyclin E2 and with OVCAR3 p-RB was at most 100 nM each time.

Turning to `C[C@@H]1CN(S(=O)(=O)N2CCN(C)CC2)CC[C@@H]1Nc1ncc(C(F)(F)F)c(-c2ncc(CC(C)(C)O)s2)n1` [Example 148, 2-methyl-1-(2-(2-(((3R,4S)-3-methyl-1-((4-methylpiperazin-1-yl)sulfonyl)piperidin-4-yl)amino)-5-(trifluoromethyl)pyrimidin-4-yl)thiazol-5-yl)propan-2-ol], the values for the IC50 at CDK2/Cyclin E2 and in the test on OVCAR3 p-RB were at most 100 nM and above 500 nM, respectively.

`C[C@@H]1CN(S(=O)(=O)N2CCOCC2)CC[C@@H]1Nc1ncc(C(F)(F)F)c(-c2ncc(CC(C)(C)O)s2)n1` [Example 147, 2-methyl-1-(2-(2-(((3R,4S)-3-methyl-1-(morpholinosulfonyl)piperidin-4-yl)amino)-5-(trifluoromethyl)pyrimidin-4-yl)thiazol-5-yl)propan-2-ol]: the IC50 is at most 100 nM on CDK2/Cyclin E2 and above 500 nM in the test on OVCAR3 p-RB.

For `C[C@@H]1CN(S(=O)(=O)c2cnn(C)c2)CC[C@@H]1Nc1ncc(C(F)(F)F)c(-c2ncc(C(C)(O)C(F)(F)F)s2)n1` (stereo partly drawn) [Example 105, 1,1,1-trifluoro-2-(2-(2-(((3R,4S)-3-methyl-1-((1-methyl-1H-pyrazol-4-yl)sulfonyl)piperidin-4-yl)amino)-5-(trifluoromethyl)pyrimidin-4-yl)thiazol-5-yl)propan-2-ol], the IC50 at CDK2/Cyclin E2 and with OVCAR3 p-RB was at most 100 nM in each case.
